# Measured values taken from ChEMBL document CHEMBL5257095, “Synthesis and biological evaluation of novel pteridin-7(8H)-one derivatives as potent CDK2 inhibitors” (Bioorg Med Chem Lett, 2023).
# Key:
# [1] = molecular target: Cyclin-dependent kinase 2/cyclin E (Homo sapiens) (UniProt P24864+P24941+O96020); experiment: Inhibition of CDK2/Cyclin E (unknown origin) at 500 nM; type: protein-complex assay
# [2] = molecular target: Cyclin-dependent kinase 2/cyclin E (Homo sapiens, UniProt P24941); experiment: Inhibition of CDK2/Cyclin E (unknown origin); type: protein-complex assay
# [3] = system: HCT-116; experiment: Antiproliferative activity against human HCT-116 cells assessed as inhibition of cell proliferation; type: functional, cell-based
# [4] = system: MV4-11; experiment: Antiproliferative activity against human MV4-11 cells assessed as inhibition of cell proliferation; type: functional, cell-based
# [5] = molecular target: Cyclin-dependent kinase 4/cyclin D1 (Homo sapiens, UniProt P11802); experiment: Inhibition of CDK4/Cyclin D1 (unknown origin); type: protein-complex assay
# [6] = molecular target: CDK6/cyclin D3 (Homo sapiens, UniProt Q00534); experiment: Inhibition of CDK6/Cyclin D3 (unknown origin); type: protein-complex assay
# [7] = species on record: Homo sapiens; experiment: Selectivity ratio of IC50 for inhibition of CDK4/Cyclin D1 (unknown origin) to IC50 for inhibition of CDK2/Cyclin E (unknown origin)
# [8] = species on record: Homo sapiens; experiment: Selectivity ratio of IC50 for inhibition of CDK6/Cyclin D3 (unknown origin) to IC50 for inhibition of CDK2/Cyclin E (unknown origin)
# Chain of CDK6/cyclin D3 (P30281 whole entry): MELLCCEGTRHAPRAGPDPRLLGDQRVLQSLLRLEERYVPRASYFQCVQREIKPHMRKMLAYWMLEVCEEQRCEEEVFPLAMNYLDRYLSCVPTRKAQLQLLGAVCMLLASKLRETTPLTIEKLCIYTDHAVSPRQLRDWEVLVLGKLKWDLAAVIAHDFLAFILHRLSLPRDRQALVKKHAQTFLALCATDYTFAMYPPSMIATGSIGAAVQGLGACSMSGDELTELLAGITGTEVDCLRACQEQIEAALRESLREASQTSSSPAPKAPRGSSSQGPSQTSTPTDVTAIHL
# Chain of CDK6/cyclin D3 (Q00534 whole entry): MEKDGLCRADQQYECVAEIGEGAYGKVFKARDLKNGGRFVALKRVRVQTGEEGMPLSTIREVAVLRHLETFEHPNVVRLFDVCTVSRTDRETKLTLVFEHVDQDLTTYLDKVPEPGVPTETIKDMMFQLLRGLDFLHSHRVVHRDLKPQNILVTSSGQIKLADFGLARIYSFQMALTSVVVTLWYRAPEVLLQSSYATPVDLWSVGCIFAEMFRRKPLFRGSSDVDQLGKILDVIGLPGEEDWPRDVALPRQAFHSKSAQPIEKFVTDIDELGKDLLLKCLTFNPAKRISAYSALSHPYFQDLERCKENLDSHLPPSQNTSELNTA
# Chain of Cyclin-dependent kinase 4/cyclin D1 (P11802 whole entry): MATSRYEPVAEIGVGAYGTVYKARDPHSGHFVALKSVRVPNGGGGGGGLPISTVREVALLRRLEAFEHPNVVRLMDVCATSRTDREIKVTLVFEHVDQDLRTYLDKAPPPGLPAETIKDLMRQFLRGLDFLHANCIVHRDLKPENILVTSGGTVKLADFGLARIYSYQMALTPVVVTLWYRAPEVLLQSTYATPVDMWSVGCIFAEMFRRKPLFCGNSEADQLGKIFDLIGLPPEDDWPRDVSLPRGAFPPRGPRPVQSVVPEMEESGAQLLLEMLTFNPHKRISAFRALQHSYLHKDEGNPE
# Chain of Cyclin-dependent kinase 4/cyclin D1 (P24385 whole entry, further chain): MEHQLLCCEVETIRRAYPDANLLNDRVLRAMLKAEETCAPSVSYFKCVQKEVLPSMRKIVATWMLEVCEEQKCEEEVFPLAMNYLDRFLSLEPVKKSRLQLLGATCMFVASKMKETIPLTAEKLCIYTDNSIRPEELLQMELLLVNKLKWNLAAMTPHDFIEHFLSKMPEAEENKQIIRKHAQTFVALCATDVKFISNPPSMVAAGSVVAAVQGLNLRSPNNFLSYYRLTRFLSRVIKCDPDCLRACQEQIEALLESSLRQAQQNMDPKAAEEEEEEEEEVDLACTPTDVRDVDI
SMILES,inhibition [1] [%],IC50 [3] [nM],IC50 [4] [nM],other results
COc1nc2cnc(NC3CCN(S(C)(=O)=O)CC3)nc2n(C2CCCC2)c1=O,82.4,1930,2570,IC50 [2]: 160 nM
CN(C)S(=O)(=O)N1CCC(Nc2ncc3nc(O)c(=O)n(C4CCCC4)c3n2)CC1,15.8,,,
O=c1c(O)nc2cnc(NC3CCN(S(=O)(=O)C4CC4)CC3)nc2n1C1CCCC1,20.1,,,
CS(=O)(=O)c1ccc(Nc2ncc3nc(NN)c(=O)n(C4CCCC4)c3n2)cc1,67.3,3430,1170,IC50 [2]: 920 nM
CS(=O)(=O)N1CCC(Nc2ncc3nc(O)c(=O)n([C@@H]4CCC[C@H]4O)c3n2)CC1,43,,,
CS(=O)(=O)N1CCC(Nc2ncc3nc(O)c(=O)n(C4CCNC4)c3n2)CC1 (stereo not given),4.1,,,
CS(=O)(=O)c1ccc(Nc2ncc3c(n2)n(C2CCCC2)c(=O)c2nncn23)cc1,1.7,,,
CS(=O)(=O)N1CCC(Nc2ncc3nc(NCC(F)F)c(=O)n(C4CCCC4)c3n2)CC1,51.2,,,
CS(=O)(=O)c1ccc(Nc2ncc3nc(O)c(=O)n(C4CCCC4)c3n2)cc1,30,,,
CN1CCN(c2ccc(Nc3ncc4nc(O)c(=O)n(C5CCCC5)c4n3)cc2)CC1,48.3,6230,4920,IC50 [2]: 1600 nM
CS(=O)(=O)N1CCC(Nc2ncc3nc(O)c(=O)n(C4CCOCC4)c3n2)CC1,9.3,,,
C[C@@]1(O)CCC[C@H]1n1c(=O)c(C(F)F)cc2cnc(NC3CCN(S(C)(=O)=O)CC3)nc21 [EBVACICLIB],98.8,220,570,
CCNc1nc2cnc(NC3CCN(S(C)(=O)=O)CC3)nc2n(C2CCCC2)c1=O,20.3,,,
CCC(CC)n1c(=O)c(OC)nc2cnc(NC3CCN(S(C)(=O)=O)CC3)nc21,79.6,5500,4880,IC50 [2]: 350 nM
CS(=O)(=O)N1CCC(Nc2nc3cnc(NN)nc3n(C3CCCC3)c2=O)CC1,26.8,,,
CCC(CC)n1c(=O)c(O)nc2cnc(NC3CCN(S(C)(=O)=O)CC3)nc21,39.2,,,

SMILES,inhibition [1] [%],IC50 [3] [nM],IC50 [4] [nM],other results
CCNc1ncc2nc(NC3CCN(S(C)(=O)=O)CC3)c(=O)n(C3CCCC3)c2n1,34.4,,,
CCC(C)n1c(=O)c(OC)nc2cnc(NC3CCN(S(C)(=O)=O)CC3)nc21 (stereo not given),70.2,6340,7810,IC50 [2]: 500 nM
CCS(=O)(=O)N1CCC(Nc2ncc3nc(NC)c(=O)n(C4CCCC4)c3n2)CC1,45.4,,,
CCNc1ncc2nc(NC3CCN(S(=O)(=O)N(C)C)CC3)c(=O)n(C3CCCC3)c2n1,43.2,,,
CS(=O)(=O)N1CCC(Nc2ncc3c(n2)n(C2CCCC2)c(=O)c2nncn23)CC1,14.2,,,
CN(C)S(=O)(=O)N1CCC(Nc2nc3cnc(NN)nc3n(C3CCCC3)c2=O)CC1,27.1,,,
CS(=O)(=O)N1CCC(Nc2ncc3nc(NN)c(=O)n(C4CCCC4)c3n2)CC1,85.6,1620,1950,IC50 [2]: 130 nM; IC50 [5]: 340 nM; IC50 [6]: 460 nM; Ratio IC50 [7]: 3; Ratio IC50 [8]: 4
COc1nc2cnc(NC3CCN(S(=O)(=O)N(C)C)CC3)nc2n(C2CCCC2)c1=O,36.1,,,
CCS(=O)(=O)N1CCC(Nc2ncc3nc(O)c(=O)n(C4CCCC4)c3n2)CC1,65.4,9320,9150,IC50 [2]: 1040 nM
CNc1nc2cnc(NC3CCN(S(C)(=O)=O)CC3)nc2n(C2CCCC2)c1=O,46.2,,,
CS(=O)(=O)N1CCC(Nc2nc3cnc(NCC(F)F)nc3n(C3CCCC3)c2=O)CC1,35.1,,,
COc1nc2cnc(NC3CCN(S(C)(=O)=O)CC3)nc2n(C2CCOCC2)c1=O,45.8,5010,4260,IC50 [2]: 1700 nM
CCC(C)n1c(=O)c(O)nc2cnc(NC3CCN(S(C)(=O)=O)CC3)nc21 (stereo not given),23.4,,,
CN(C)S(=O)(=O)N1CCC(Nc2nc3cnc(NCC(F)F)nc3n(C3CCCC3)c2=O)CC1,38.2,,,
CS(=O)(=O)N1CCC(Nc2ncc3nc(O)c(=O)n(C4CCCC4)c3n2)CC1,62.2,10600,13900,IC50 [2]: 1220 nM
CNc1nc2cnc(NC3CCN(S(=O)(=O)C4CC4)CC3)nc2n(C2CCCC2)c1=O,9.2,,,
